# Results as given in ChEMBL document CHEMBL1201862, “PubChem BioAssay data set” (2004).
# Active and inactive are the calls of the source.
# Legend:
# [1] = biological target: T1, Cytochrome P450 2D6 (Homo sapiens, UniProt P10635);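 further: CYP2D6 member of a cytochrome P450 panel assay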
# [2] = biological target: T2, Cytochrome P450 2C9 (Homo sapiens, UniProt P11712)
# [3] = biological target: CAAX prenyl protease 1 (Saccharomyces cerevisiae S288c, UniProt P47154); assay: Ste24 protease inhibitors, dose response, biochemical, S. cerevisiae, plate reader, cherry-pick (AID 488815)
# Sequence of CAAX prenyl protease 1 (P47154 whole entry): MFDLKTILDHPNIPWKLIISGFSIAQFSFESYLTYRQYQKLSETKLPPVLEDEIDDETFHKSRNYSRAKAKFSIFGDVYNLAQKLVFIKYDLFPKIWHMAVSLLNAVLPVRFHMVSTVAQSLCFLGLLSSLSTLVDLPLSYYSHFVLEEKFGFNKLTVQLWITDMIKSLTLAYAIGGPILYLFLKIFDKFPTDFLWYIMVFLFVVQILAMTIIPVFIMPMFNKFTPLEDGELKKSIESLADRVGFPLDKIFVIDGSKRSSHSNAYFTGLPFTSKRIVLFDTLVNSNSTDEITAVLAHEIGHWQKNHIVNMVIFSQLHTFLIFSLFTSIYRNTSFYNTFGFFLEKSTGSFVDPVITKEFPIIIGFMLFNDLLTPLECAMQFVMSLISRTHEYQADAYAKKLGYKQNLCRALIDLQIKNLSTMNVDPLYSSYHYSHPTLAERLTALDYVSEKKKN
# [4] = biological target: T2, Cytochrome P450 2C9; remark: listed apart in the source
# [5] = system: BJ; assay: cells; assay type: functional, cell-based; settings: Homo sapiens
# [6] = biological target: Phospholipase A2 (Homo sapiens, UniProt P04054); assay: PLA2 enzyme inhibitors, dose response, counter-screen for ATG4B inhibitor project, biochemical, set 2 (AID 588586); assay type: functional
# Sequence of Phospholipase A2 (P04054 whole entry): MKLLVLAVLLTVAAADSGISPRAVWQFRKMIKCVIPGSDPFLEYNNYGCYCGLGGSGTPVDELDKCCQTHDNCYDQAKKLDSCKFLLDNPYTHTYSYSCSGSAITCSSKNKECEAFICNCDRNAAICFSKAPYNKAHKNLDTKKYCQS
# [7] = biological target: T3, Cysteine protease ATG4B (Homo sapiens, UniProt Q9Y4P1); assay: ATG4B protease inhibitors, dose response, biochemical, fluorescence, set 2 (AID 588584); assay type: functional
# T3 sequence (Q9Y4P1 whole entry): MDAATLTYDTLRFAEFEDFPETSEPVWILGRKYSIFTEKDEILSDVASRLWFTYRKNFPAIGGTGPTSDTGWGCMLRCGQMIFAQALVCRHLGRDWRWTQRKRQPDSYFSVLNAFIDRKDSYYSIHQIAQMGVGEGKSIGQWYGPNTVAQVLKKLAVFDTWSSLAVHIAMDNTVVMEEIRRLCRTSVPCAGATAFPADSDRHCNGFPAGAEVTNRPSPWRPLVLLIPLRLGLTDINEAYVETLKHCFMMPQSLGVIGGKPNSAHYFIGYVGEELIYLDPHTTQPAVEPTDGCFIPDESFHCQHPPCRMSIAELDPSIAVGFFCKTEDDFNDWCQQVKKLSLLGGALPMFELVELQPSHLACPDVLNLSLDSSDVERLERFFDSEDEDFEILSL
# [8] = cytotoxicity toward DRD oncogenic fibroblasts, dose response, cell-based, non-viral oncogenic, luminescence (AID 1934); assay type: functional; settings: Homo sapiens
# [9] = system: BJ; assay: cytotoxicity toward BJ-TERT fibroblasts, dose response, cell-based, RAS-independent, luminescence (AID 1933); assay type: functional; settings: Homo sapiens
# [10] = system: BJ; assay: cytotoxicity toward BJ-TERT-LT-ST fibroblasts, dose response, cell-based, RAS-independent, luminescence (AID 1935); assay type: functional; settings: Homo sapiens;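 further: BJ fibroblasts immortalized with TERT plus LT and ST oncogenes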
# [11] = cells; assay type: functional, cell-based
# [12] = biological target: ATP-dependent molecular chaperone HSP82 (Candida albicans (strain WO-1) (Yeast), UniProt C4YTQ8); assay: loss of DOC-induced GRE-beta-galactosidase reporter signal, dose response, Hsp90 inhibitor project, S. cerevisiae, luminescence (AID 2400); assay type: functional, cell-based;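 further: beta-galactosidase luminescence from glucocorticoid response element reporter as proxy for Hsp90 function; inhibitor potency where signal loss means Hsp90 inhibition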
# Sequence of ATP-dependent molecular chaperone HSP82 (C4YTQ8 whole entry): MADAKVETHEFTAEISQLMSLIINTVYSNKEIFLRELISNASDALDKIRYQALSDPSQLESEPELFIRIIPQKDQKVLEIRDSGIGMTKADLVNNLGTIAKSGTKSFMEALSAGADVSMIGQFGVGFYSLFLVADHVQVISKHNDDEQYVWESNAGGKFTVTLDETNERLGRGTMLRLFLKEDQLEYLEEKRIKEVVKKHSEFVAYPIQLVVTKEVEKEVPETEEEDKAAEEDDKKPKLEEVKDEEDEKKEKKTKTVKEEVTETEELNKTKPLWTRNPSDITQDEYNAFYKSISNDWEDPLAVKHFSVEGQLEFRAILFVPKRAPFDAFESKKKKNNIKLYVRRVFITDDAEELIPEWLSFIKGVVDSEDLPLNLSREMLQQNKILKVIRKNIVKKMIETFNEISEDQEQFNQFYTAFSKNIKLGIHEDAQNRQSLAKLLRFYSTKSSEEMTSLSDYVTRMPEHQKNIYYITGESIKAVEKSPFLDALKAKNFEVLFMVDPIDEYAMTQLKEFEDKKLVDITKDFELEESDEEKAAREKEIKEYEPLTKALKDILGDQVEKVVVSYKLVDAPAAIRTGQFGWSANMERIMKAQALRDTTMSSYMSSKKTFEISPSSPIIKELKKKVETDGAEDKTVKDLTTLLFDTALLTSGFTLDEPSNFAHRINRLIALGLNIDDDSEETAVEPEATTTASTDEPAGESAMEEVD
# [13] = biological target: T1, Cytochrome P450 2D6; remark: listed apart in the source
# [14] = cells; assay type: functional, cell-based; remark: listed apart in the source
# [15] = system: Streptococcus sp. 'group A'; assay: growth inhibition of control SK(-) GAS strain, dose response, counter-screen for streptokinase expression inhibitor project, luminescence, kanamycin, BacTiterGlo, confirmation (AID 1900); assay type: functional, organism-based
# [16] = Luminescence Cell-Based Dose Retest to Confirm Inhibitors of Cancer Stem Cells. [Related pubchem assays (depositor defined):AID2717, AID2721]; assay type: functional; settings: Homo sapiens
# [17] = biological target: T4, Serine/threonine-protein phosphatase (Candida dubliniensis (strain CD36 / CBS 7987 / NCPF 3949 / NRRLY-17841) (Yeast), UniProt B9W6M3); assay: calcineurin pathway inhibitors in yeast reporter, dose response, S. cerevisiae, CDRE-lacZ, luminescence, secondary (AID 2388); assay type: functional, cell-based;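 further: yeast reporter cells carrying a calcineurin-responsive lacZ construct stimulated with calcium chloride; luminescent beta-galactosidase reporter signal in whole cells rather than isolated phosphatase activity; potency for inhibition where a drop in reporter signal means calcineurin blockade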
# T4 sequence (B9W6M3 whole entry): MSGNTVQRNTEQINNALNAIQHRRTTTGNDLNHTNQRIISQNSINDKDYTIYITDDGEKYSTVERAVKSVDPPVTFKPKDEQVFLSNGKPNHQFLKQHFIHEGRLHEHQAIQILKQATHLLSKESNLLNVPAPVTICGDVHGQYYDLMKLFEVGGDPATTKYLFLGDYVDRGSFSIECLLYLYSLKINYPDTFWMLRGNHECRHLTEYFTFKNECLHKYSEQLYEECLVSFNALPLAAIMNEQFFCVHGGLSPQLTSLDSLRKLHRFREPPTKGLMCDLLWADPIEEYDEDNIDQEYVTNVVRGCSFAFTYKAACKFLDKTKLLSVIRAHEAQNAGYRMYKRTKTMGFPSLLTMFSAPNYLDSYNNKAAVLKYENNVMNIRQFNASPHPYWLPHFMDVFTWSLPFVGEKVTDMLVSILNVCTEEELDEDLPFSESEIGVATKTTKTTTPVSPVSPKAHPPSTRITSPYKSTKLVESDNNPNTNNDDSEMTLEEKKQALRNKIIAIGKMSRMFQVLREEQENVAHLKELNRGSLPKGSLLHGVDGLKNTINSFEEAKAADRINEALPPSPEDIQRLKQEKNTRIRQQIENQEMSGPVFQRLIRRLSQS
# [18] = biological target: T5, Microphthalmia-associated transcription factor (Homo sapiens, UniProt O75030); assay: TRPM1 promoter luciferase signal decrease, dose response, MITF inhibitor project, cell-based, SK-MEL-5, cherry-picked, set 3 (AID 493073); assay type: functional
# T5 sequence (O75030 whole entry): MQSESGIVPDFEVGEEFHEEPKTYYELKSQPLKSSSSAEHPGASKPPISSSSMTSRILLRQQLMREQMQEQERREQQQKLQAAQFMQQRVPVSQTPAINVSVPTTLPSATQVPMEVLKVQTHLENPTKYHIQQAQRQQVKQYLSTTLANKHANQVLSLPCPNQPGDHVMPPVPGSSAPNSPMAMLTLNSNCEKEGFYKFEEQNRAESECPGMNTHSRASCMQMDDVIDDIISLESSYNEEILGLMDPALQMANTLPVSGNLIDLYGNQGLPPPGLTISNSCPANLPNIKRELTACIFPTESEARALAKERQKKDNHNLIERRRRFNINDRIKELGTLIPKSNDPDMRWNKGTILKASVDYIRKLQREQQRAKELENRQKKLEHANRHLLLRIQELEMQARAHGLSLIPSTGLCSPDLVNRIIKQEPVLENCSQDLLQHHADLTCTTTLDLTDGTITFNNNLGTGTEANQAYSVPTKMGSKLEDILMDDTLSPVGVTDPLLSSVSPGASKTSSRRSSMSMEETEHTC
# [19] = NIH-3T3 fibroblast cytotoxicity, dose response, cytotoxicity control, cell-based, fluorescence, Alamar Blue, secondary assay (AID 2327); assay type: functional;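 further: NIH-3T3 mouse fibroblasts cultured with fluconazole at 8 µg/mL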
# [20] = C. albicans growth with fluconazole, confirmation, fluorescence, retest (AID 2467); assay type: functional, cell-based
# [21] = system: INS1; assay: beta cell apoptosis inhibitors, cytokine rescue, dose response, luminescence, retest (AID 449756); assay type: functional, cell-based; settings: Rattus norvegicus;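 further: cell death triggered by IL-1 beta plus TNF-alpha plus IFN-gamma mixture; protective hits raise ATP signal compared with cytokine alone wells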
# [22] = system: Streptococcus; assay: Group A Streptococcus viability loss, dose response, counter-screen for streptokinase expression inhibitor project, luminescence, BacTiterGlo (AID 1915); assay type: functional, organism-based;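 further: potency for reduction of bacterial viability or growth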
# T1 sequence (P10635 whole entry): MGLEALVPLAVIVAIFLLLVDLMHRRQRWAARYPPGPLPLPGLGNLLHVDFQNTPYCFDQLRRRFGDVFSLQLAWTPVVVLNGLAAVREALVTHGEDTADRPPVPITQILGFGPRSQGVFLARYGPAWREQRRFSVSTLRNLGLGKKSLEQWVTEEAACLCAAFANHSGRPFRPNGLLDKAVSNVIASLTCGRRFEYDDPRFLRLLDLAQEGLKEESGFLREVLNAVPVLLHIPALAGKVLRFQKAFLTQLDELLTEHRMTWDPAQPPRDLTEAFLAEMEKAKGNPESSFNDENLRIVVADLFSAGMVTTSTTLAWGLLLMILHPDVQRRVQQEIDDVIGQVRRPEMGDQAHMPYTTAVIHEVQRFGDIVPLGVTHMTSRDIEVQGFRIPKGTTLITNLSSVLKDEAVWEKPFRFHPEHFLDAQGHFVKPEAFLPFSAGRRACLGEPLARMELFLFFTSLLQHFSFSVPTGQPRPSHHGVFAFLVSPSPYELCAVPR
# T2 sequence (P11712 whole entry): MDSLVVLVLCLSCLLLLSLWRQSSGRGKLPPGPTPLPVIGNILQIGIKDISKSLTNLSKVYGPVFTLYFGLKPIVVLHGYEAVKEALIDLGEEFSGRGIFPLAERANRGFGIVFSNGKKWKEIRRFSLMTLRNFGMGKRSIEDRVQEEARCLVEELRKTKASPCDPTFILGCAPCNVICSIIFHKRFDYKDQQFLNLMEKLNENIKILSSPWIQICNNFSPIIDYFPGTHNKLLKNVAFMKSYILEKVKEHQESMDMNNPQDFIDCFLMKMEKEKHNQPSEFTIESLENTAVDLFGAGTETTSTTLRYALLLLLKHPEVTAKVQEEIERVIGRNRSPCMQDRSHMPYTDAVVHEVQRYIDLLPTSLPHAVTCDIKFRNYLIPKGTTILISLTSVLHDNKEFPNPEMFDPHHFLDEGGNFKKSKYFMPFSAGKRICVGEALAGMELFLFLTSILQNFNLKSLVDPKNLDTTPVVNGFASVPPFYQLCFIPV
compound,measurement,setting,value
CC(C)c1ccc(C(O)(C(=O)O)c2ccc(C(C)C)cc2)cc1,AC50,[1],inconclusive
same,AC50,[2],3.98 µM (inconclusive)
Cc1cc(C)cc(N2CC(=O)C(c3nc(O)c4ccccc4n3)=C2N)c1,AC50,[3],14.7 µM (active)
COc1ccccc1C(=O)Nc1cc2c(ccc3ccccc32)oc1=O,AC50,[4],inconclusive
CC1=Nc2cc(C(=O)NCc3ccco3)ccc2Sc2ccc(C)cc21,EC50,[5],2.76 µM (active)
same,IC50,[6],74.1 µM (inactive)
same,IC50,[7],77.5 µM (inactive)
same,EC50,[8],2.73 µM (inconclusive)
same,EC50,[9],2.33 µM (inconclusive)
same,EC50,[10],1.95 µM (active)
Cc1c(Cl)c([N+](=O)[O-])nn1Cc1ccc(C(=O)N/N=C\c2cc(Cl)ccc2O)o1,IC50,[6],5.5 µM (active)
same,EC50,[11],9.68 µM (active)
same,EC50,[12],29.5 µM (active)
same,AC50,[13],11.2 µM (inconclusive)
same,EC50,[14],89 µM (active)
same,IC50,[7],21 µM (inactive)
same,EC50,[15],2.03 µM (active)
same,AC50,[16],3.28 µM (active)
same,EC50,[17],> 180 µM (inactive)
same,AC50,[18],3.47 µM (active)
same,EC50,[19],> 160 µM (inactive)
same,EC50,[20],0.754 µM (active)
same,AC50,[21],1.67 µM (active)
same,EC50,[22],2.38 µM (active)
